From PubChem BioAssay (NCI)
Several values for one entry are separate records, joined by “and”; a condition that tells them apart may be missing. Identical values can stand only once.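 Each compound was tested at five concentrations against cells in 96-well plates for 48 hours. GI50 marks 50% less growth. TGI: total growth inhibition.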

Tests used:
Test in all cases: growth of human tumour cells (NCI), 48 h
786-0 renal = tested on: 786-0 renal
SR leukemia = tested on: SR leukemia
HCT-15 colon = tested on: HCT-15 colon
SK-OV-3 ovarian = tested on: SK-OV-3 ovarian
IGROV1 ovarian = tested on: IGROV1 ovarian
M14 melanoma = tested on: M14 melanoma
CCRF-CEM leukemia = tested on: CCRF-CEM leukemia
RPMI-8226 leukemia = tested on: RPMI-8226 leukemia
OVCAR-5 ovarian = tested on: OVCAR-5 ovarian
SNB-75 CNS = tested on: SNB-75 CNS

Compound	TGI (786-0 renal)	TGI (SR leukemia)	TGI (HCT-15 colon)	TGI (SK-OV-3 ovarian)	TGI (IGROV1 ovarian)	TGI (M14 melanoma)	TGI (CCRF-CEM leukemia)	TGI (RPMI-8226 leukemia)	TGI (OVCAR-5 ovarian)	TGI (SNB-75 CNS)	GI50 (786-0 renal)	GI50 (SR leukemia)	GI50 (HCT-15 colon)	GI50 (SK-OV-3 ovarian)	GI50 (IGROV1 ovarian)	GI50 (M14 melanoma)	GI50 (CCRF-CEM leukemia)	GI50 (RPMI-8226 leukemia)	GI50 (OVCAR-5 ovarian)	GI50 (SNB-75 CNS)
N#CC(N)=Nc1ccccc1	> 100 µM	> 100 µM	> 100 µM	> 100 µM	> 100 µM	> 100 µM	> 100 µM	> 100 µM	> 100 µM	> 100 µM	–	–	–	–	–	–	–	–	–	–
O=S(=O)(/N=c1\scc(-c2ccccc2)n1-c1ccccc1)c1ccc(N2N=C3c4ccccc4CC3C2c2ccc(Cl)cc2)cc1 (stereo not drawn)	> 100 µM	45.9 µM	> 100 µM	> 100 µM	85.1 µM	> 100 µM	59.3 µM	> 100 µM	> 100 µM	> 100 µM	32.7 µM	17.3 µM	47.7 µM	76.2 µM	25.7 µM	> 100 µM	18.6 µM	21.5 µM	38.1 µM	> 100 µM
Cc1c(/C=N/NC(=O)c2ccccc2O)c(=O)n(-c2ccccc2)n1C	> 100 µM	> 100 µM	> 100 µM	> 100 µM	> 100 µM	> 100 µM	> 100 µM	> 100 µM	–	> 100 µM	–	–	–	–	–	–	–	–	–	–
CO/N=C(\COc1ccc2c(c1)[nH]c1ccccc12)c1ccc(OC)cc1	> 100 µM	> 100 µM	> 100 µM	> 100 µM	> 100 µM	> 100 µM	> 100 µM	> 100 µM	> 100 µM	> 100 µM	7.18 µM	71.6 µM	> 100 µM	34.6 µM	31.5 µM	> 100 µM	> 100 µM	> 100 µM	61 µM	6.66 µM
COC(=O)C1=CO[C@@H](OC2CC(CO)C(O)C(O)C2O)[C@@H]2[C@@H](C)[C@@H](OC(=O)/C=C/c3ccccc3)[C@@H](O)[C@H]12 (stereo partly drawn) (tested in a mixture with another compound)	> 100 µM	> 100 µM	–	> 100 µM	> 100 µM	> 100 µM	> 100 µM	> 100 µM	> 100 µM	> 100 µM	–	–	–	–	–	–	–	–	–	–
FC(F)(F)c1cccc(-c2nc3nc(Cl)c(Cl)nc3[nH]2)c1	> 65.7 µM	12.2 µM	> 38.6 µM	> 90.1 µM	> 100 µM	30.8 µM	7.99 µM	3.5 µM	16 µM	7.06 µM	–	–	–	–	–	–	–	–	–	–
c1ccc(-c2nc(-c3ccccn3)nc(-c3ccccn3)n2)nc1	> 100 µM	> 100 µM	> 100 µM	> 100 µM	55.2 µM	> 100 µM	> 100 µM	> 100 µM	> 100 µM	> 100 µM	61.5 µM	37.9 µM	5.71 µM	54.2 µM	15.8 µM	31.4 µM	14.4 µM	18.3 µM	> 100 µM	> 100 µM
Cn1ncc(-c2ccc3c(=O)[nH]nc(CN)c3c2)c1-c1c(F)c(Cl)cc(OC2CC2)c1C#N	29.5 µM and 26 µM	34.8 µM and 41 µM	30 µM and 28.9 µM	40.5 µM and 33.3 µM	30.1 µM and 24.6 µM	28.9 µM and 27.5 µM	> 100 µM	47.5 µM and 47.8 µM	77 µM and 44.7 µM	23.7 µM and 20.7 µM	13.4 µM and 12.3 µM	13.1 µM and 12.3 µM	14.7 µM and 14.3 µM	20.4 µM and 17.4 µM	14.2 µM and 11.6 µM	14.2 µM and 13.4 µM	22.3 µM and 33.4 µM	14.9 µM and 16 µM	20.4 µM and 16.8 µM	11.1 µM and 5.4 µM
